How the values were obtained:
Abl = Abl (Homo sapiens (Human), UniProt P00519); assay type: biochemical; conditions: read-out: % Inhibition @ 0.1 μM, Abl
Abl (m) = Abl (m) (Mus musculus (Mouse), UniProt P00520); assay type: biochemical; conditions: read-out: % Inhibition @ 0.1 μM, Abl (m)
Abl (H396P) = Abl (H396P) (Homo sapiens (Human), UniProt P00519, H396P); assay type: biochemical; conditions: read-out: % Inhibition @ 0.1 μM, Abl (H396P)
Abl (M351T) = Abl (M351T) (Homo sapiens (Human), UniProt P00519, M351T); assay type: biochemical; conditions: read-out: % Inhibition @ 0.1 μM, Abl (M351T)
Abl (Q252H) = Abl (Q252H) (Homo sapiens (Human), UniProt P00519, Q252H); assay type: biochemical; conditions: read-out: % Inhibition @ 0.1 μM, Abl (Q252H)
Abl (T315I) = Abl (T315I) (Homo sapiens (Human), UniProt P00519, T315I); assay type: biochemical; conditions: read-out: % Inhibition @ 0.1 μM, Abl (T315I)
Abl (Y253F) = Abl (Y253F) (Homo sapiens (Human), UniProt P00519, Y253F); assay type: biochemical; conditions: read-out: % Inhibition @ 0.1 μM, Abl (Y253F)
ALK = ALK (Homo sapiens (Human), UniProt Q9UM73); assay type: biochemical; conditions: read-out: % Inhibition @ 0.1 μM, ALK
Arg = Arg (Homo sapiens (Human), UniProt P42684); assay type: biochemical; conditions: read-out: % Inhibition @ 0.1 μM, Arg
Arg (m) = Arg (m) (Mus musculus (Mouse), UniProt Q4JIM5); assay type: biochemical; conditions: read-out: % Inhibition @ 0.1 μM, Arg (m)
ARK5 = ARK5 (Homo sapiens (Human), UniProt O60285); assay type: biochemical; conditions: read-out: % Inhibition @ 0.1 μM, ARK5
Aurora A = Aurora A (Homo sapiens (Human), UniProt O14965); assay type: biochemical; conditions: read-out: % Inhibition @ 0.1 μM, Aurora-A
Bmx = Bmx (Homo sapiens (Human), UniProt P51813); assay type: biochemical; conditions: read-out: % Inhibition @ 0.1 μM, Bmx
EphA1 = EphA1 (Homo sapiens (Human), UniProt P21709); assay type: biochemical; conditions: read-out: % Inhibition @ 0.1 μM, EphA1
EphB1 = EphB1 (Homo sapiens (Human), UniProt P54762); assay type: biochemical; conditions: read-out: % Inhibition @ 0.1 μM, EphB1
FGFR1 = FGFR1 (Homo sapiens (Human), UniProt P11362); assay type: biochemical; conditions: read-out: % Inhibition @ 0.1 μM, FGFR1
FGFR1 (V561M) = FGFR1 (V561M) (Homo sapiens (Human), UniProt P11362, V561M); assay type: biochemical; conditions: read-out: % Inhibition @ 0.1 μM, FGFR1 (V561M)
FGFR2 = FGFR2 (Homo sapiens (Human), UniProt P21802); assay type: biochemical; conditions: read-out: % Inhibition @ 0.1 μM, FGFR2
FGFR2, sequence (P21802 22-821): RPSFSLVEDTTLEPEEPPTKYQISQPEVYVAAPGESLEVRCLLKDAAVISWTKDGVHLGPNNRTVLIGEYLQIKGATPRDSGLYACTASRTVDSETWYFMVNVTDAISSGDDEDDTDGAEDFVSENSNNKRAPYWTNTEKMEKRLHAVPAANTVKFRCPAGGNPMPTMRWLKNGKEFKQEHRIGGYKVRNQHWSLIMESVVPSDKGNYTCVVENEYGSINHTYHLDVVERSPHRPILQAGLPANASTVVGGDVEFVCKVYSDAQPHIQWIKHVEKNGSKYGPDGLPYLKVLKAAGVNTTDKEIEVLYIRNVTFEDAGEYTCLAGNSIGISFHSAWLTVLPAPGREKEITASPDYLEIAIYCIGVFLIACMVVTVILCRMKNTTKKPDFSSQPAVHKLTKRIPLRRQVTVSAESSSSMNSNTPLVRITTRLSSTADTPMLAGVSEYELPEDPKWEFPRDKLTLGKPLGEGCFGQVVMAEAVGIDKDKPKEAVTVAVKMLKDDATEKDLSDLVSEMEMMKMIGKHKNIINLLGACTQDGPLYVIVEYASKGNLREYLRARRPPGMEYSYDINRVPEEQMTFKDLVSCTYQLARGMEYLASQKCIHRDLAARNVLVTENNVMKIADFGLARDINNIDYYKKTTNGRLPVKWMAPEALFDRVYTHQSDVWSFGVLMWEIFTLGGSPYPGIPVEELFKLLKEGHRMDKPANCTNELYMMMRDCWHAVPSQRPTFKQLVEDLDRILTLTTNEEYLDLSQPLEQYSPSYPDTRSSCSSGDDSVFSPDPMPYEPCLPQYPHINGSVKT

FGFR2 (N549H) = FGFR2 (N549H) (Homo sapiens (Human), UniProt P21802, N549H); assay type: biochemical; conditions: read-out: % Inhibition @ 0.1 μM, FGFR2 (N549H)
FGFR2 (N549H), sequence (P21802 22-821 N549H): as the sequence (P21802 22-821) above, with N528H counted along it

FGFR3 = FGFR3 (Homo sapiens (Human), UniProt P22607); assay type: biochemical; conditions: read-out: % Inhibition @ 0.1 μM, FGFR3
FGFR3, sequence (P22607 23-806): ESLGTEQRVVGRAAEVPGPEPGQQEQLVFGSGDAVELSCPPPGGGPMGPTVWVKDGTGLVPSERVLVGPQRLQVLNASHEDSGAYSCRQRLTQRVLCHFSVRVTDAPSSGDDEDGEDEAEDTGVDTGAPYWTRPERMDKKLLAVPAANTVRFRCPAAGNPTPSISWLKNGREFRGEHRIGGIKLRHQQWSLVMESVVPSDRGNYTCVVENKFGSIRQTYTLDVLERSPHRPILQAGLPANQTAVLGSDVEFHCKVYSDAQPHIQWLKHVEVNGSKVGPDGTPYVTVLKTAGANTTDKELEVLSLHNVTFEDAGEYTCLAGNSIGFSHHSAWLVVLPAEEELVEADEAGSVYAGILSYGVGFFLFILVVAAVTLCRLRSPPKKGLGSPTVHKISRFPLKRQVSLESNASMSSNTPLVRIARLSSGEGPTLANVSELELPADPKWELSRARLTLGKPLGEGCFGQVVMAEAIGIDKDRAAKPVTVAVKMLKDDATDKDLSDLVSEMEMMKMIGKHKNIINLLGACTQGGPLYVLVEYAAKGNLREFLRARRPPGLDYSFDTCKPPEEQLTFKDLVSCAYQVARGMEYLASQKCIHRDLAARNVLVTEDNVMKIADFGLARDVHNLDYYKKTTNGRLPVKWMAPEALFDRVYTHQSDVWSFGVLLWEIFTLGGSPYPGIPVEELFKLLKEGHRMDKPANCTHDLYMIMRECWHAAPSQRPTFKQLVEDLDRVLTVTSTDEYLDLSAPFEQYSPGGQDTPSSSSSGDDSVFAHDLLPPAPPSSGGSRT

GCK = GCK (Homo sapiens (Human), UniProt Q12851); assay type: biochemical; conditions: read-out: % Inhibition @ 0.1 μM, GCK
IRAK1 = IRAK1 (Homo sapiens (Human), UniProt P51617); assay type: biochemical; conditions: read-out: % Inhibition @ 0.1 μM, IRAK1
IRAK1, sequence (P51617 whole entry): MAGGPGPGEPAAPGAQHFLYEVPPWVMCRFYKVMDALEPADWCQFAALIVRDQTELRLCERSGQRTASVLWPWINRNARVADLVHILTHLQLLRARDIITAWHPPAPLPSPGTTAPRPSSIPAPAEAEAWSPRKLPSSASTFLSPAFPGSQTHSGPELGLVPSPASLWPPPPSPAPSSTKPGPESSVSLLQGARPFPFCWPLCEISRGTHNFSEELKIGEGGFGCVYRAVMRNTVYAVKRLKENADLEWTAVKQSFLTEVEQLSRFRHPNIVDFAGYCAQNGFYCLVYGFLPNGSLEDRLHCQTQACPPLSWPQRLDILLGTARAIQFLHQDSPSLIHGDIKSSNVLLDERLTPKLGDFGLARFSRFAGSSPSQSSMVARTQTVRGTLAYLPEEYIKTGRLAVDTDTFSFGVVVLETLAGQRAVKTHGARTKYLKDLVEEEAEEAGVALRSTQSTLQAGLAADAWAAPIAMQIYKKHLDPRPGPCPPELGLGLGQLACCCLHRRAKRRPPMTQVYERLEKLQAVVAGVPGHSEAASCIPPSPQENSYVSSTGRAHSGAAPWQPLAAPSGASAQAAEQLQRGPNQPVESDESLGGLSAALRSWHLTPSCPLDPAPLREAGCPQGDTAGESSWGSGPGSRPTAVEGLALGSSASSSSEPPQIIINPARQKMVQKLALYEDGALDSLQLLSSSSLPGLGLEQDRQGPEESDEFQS

Itk = Itk (Homo sapiens (Human), UniProt Q08881); assay type: biochemical; conditions: read-out: % Inhibition @ 0.1 μM, Itk
Lck = Lck (Homo sapiens (Human), UniProt P06239); assay type: biochemical; conditions: read-out: % Inhibition @ 0.1 μM, Lck
Lck, sequence (P06239 whole entry): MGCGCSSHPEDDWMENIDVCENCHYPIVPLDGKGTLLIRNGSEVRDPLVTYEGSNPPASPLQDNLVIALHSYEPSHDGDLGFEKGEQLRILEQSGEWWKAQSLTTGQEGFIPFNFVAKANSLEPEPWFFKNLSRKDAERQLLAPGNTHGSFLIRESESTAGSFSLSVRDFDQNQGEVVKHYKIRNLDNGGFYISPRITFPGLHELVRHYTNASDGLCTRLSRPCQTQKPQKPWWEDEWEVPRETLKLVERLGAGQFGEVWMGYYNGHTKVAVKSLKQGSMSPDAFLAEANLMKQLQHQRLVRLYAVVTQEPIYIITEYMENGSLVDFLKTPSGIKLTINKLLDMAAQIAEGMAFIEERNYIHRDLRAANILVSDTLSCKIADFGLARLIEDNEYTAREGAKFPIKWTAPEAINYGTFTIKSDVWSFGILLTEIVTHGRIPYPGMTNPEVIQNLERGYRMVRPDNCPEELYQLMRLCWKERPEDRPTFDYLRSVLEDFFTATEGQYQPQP

Lck activated = Lck activated (Homo sapiens (Human), UniProt P06239); assay type: biochemical; conditions: read-out: % Inhibition @ 0.1 μM, Lck activated
Lck activated, sequence (P06239 whole entry): as above

MuSK = MuSK (Homo sapiens (Human), UniProt O15146); assay type: biochemical; conditions: read-out: % Inhibition @ 0.1 μM, MuSK
Ret (V804L) = Ret (V804L) (Homo sapiens (Human), UniProt P07949, V804L); assay type: biochemical; conditions: read-out: % Inhibition @ 0.1 μM, Ret (V804L)
Ret (V804L), sequence (P07949 29-1114 V804L): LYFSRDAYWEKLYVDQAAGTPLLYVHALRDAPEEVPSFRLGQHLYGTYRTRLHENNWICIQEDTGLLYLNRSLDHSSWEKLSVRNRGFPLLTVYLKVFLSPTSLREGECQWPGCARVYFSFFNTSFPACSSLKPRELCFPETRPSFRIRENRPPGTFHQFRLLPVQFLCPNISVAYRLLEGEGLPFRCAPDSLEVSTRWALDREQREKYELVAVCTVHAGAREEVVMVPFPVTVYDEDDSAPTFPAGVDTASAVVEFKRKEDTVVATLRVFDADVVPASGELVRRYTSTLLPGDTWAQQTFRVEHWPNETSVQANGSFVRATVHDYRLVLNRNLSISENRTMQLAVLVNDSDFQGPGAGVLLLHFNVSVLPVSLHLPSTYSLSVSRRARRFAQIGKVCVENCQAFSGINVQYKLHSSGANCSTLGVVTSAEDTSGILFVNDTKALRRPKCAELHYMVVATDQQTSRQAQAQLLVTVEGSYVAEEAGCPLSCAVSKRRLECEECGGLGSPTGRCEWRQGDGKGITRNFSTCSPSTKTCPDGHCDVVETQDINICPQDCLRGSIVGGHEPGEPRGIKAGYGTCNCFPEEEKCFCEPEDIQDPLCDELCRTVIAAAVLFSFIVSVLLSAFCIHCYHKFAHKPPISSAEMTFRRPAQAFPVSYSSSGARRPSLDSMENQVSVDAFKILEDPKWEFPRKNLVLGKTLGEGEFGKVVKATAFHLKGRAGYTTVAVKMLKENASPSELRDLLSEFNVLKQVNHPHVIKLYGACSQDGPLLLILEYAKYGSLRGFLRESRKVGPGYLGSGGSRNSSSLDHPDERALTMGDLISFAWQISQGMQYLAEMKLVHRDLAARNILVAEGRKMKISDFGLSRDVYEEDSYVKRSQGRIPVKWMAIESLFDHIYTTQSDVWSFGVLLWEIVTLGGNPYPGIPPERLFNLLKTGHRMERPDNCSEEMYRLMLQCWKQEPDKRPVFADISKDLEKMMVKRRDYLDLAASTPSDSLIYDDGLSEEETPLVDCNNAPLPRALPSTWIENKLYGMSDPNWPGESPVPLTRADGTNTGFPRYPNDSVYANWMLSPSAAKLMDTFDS

Ron = Ron (Homo sapiens (Human), UniProt Q04912); assay type: biochemical; conditions: read-out: % Inhibition @ 0.1 μM, Ron
Ros = Ros (Homo sapiens (Human), UniProt P08922); assay type: biochemical; conditions: read-out: % Inhibition @ 0.1 μM, Ros
Tie2 = Tie2 (Homo sapiens (Human), UniProt Q02763); assay type: biochemical; conditions: read-out: % Inhibition @ 0.1 μM, Tie2
Tie2 (R849W) = Tie2 (R849W) (Homo sapiens (Human), UniProt Q02763, R849W); assay type: biochemical; conditions: read-out: % Inhibition @ 0.1 μM, Tie2 (R849W)
Tie2 (Y897S) = Tie2 (Y897S) (Homo sapiens (Human), UniProt Q02763, Y897S); assay type: biochemical; conditions: read-out: % Inhibition @ 0.1 μM, Tie2 (Y897S)
Tie2 (Y897S), sequence (Q02763 23-1124 Y897S): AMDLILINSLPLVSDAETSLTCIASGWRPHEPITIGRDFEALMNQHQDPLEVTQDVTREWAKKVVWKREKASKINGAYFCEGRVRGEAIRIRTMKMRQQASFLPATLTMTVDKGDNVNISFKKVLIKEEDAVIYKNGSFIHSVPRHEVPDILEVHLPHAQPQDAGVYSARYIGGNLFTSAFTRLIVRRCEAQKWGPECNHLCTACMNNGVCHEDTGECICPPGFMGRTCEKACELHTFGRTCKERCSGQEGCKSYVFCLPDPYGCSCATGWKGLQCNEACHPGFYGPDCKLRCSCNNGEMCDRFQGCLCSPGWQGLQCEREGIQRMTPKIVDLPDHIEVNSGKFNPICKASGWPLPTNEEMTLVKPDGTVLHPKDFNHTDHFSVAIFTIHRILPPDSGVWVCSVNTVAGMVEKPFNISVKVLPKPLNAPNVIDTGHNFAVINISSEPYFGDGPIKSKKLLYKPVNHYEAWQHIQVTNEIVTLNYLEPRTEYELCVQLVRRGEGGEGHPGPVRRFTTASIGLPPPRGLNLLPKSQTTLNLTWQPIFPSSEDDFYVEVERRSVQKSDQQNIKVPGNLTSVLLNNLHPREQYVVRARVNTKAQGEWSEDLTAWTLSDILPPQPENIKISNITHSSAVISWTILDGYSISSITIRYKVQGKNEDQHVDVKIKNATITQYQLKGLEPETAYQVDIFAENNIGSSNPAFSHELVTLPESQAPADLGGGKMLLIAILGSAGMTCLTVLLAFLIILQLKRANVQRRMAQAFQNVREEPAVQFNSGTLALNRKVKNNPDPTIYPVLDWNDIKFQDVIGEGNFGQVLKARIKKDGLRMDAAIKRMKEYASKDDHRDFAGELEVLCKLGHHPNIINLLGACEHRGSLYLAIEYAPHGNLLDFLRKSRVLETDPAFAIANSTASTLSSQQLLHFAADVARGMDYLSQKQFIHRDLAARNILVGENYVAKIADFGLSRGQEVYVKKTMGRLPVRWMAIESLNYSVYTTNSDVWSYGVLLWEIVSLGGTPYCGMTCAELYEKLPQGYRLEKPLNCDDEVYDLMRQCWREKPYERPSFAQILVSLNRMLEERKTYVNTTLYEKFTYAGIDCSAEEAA

TRKA = TRKA (Homo sapiens (Human), UniProt P04629); assay type: biochemical; conditions: read-out: % Inhibition @ 0.1 μM, TrkA
TrkB = TrkB (Homo sapiens (Human), UniProt Q16620); experiment: biochemical; conditions: read-out: % Inhibition @ 0.1 μM, TrkB
Aurora B = Aurora B (Homo sapiens (Human), UniProt Q96GD4); conditions: read-out: % Inhibition @ 0.1 μM, Aurora-B
FLT3 = FLT3 (Homo sapiens (Human), UniProt P36888); conditions: read-out: % Inhibition @ 0.1 μM, Flt3

COc1ccc2c(c1)[C@]1(C[C@H]1c1ccc3c(/C=C/c4ccc(N5CCN(C)CC5)nc4)n[nH]c3c1)C(=O)N2 [Example A33, (1R,2S)-5′-methoxy-2-(3-((E)-2-(6-(4-methylpiperazin-1-yl)pyridin-3-yl)vinyl)-1H-indazol-6-yl)spiro[cyclopropane-1,3′-indolin]-2′-one 2,2,2-trifluoroacetate]
inhibition at 0.1 µM (Abl): 72% | inhibition at 0.1 µM (Abl (m)): 96% | inhibition at 0.1 µM (Abl (H396P)): 93% | inhibition at 0.1 µM (Abl (M351T)): 95% | inhibition at 0.1 µM (Abl (Q252H)): 83% | inhibition at 0.1 µM (Abl (T315I)): 94% | inhibition at 0.1 µM (Abl (Y253F)): 78% | inhibition at 0.1 µM (ALK): 32% | inhibition at 0.1 µM (Arg): 94% | inhibition at 0.1 µM (Arg (m)): 96% | inhibition at 0.1 µM (ARK5): 67% | inhibition at 0.1 µM (Aurora A): 96% | inhibition at 0.1 µM (Bmx): 68% | inhibition at 0.1 µM (EphA1): 22% | inhibition at 0.1 µM (EphB1): 34% | inhibition at 0.1 µM (FGFR1): 87% | inhibition at 0.1 µM (FGFR1 (V561M)): 91% | inhibition at 0.1 µM (FGFR2): 82% | inhibition at 0.1 µM (FGFR2 (N549H)): 75% | inhibition at 0.1 µM (FGFR3): 91% | inhibition at 0.1 µM (GCK): 51% | inhibition at 0.1 µM (IRAK1): 24% | inhibition at 0.1 µM (Itk): 34% | inhibition at 0.1 µM (Lck): 48% | inhibition at 0.1 µM (Lck activated): 41% | inhibition at 0.1 µM (MuSK): 18% | inhibition at 0.1 µM (Ret (V804L)): 43% | inhibition at 0.1 µM (Ron): 42% | inhibition at 0.1 µM (Ros): 23% | inhibition at 0.1 µM (Tie2): 83% | inhibition at 0.1 µM (Tie2 (R849W)): 40% | inhibition at 0.1 µM (Tie2 (Y897S)): 49% | inhibition at 0.1 µM (TRKA): 97% | inhibition at 0.1 µM (TrkB): 98% | inhibition at 0.1 µM (Aurora B): 100% | inhibition at 0.1 µM (FLT3): 28%
